Assay results as given in patent US8883833B2, “Substituted benzoazole PDE4 inhibitors for treating inflammatory, cardiovascular and CNS disorders” (Decode Genetics EHF, priority 2007, dated 2014).
pIC50: −log10 of the molar value.

What was measured:
[1] = tested on: patients suffering from asthma and COPD; details: cited from earlier work; for results of administration to patients: asthma and COPD patients, initial
h4B1 = h4B1 (Homo sapiens, UniProt Q07343); test: In-vitro assay for PDE4 enzymes, real-time enzyme-coupled spectrophotometric assay (Table 3); type: biochemical
Description: (§1) In-vitro assay for PDE4 enzymes. The in-vitro activity of PDE4 enzymes and the in-vitro potency of therapeutic agents described in the present invention was measured using a real-time, enzyme-coupled spectrophotometric assay. By using three different coupling enzymes, the product of the PDE4 reaction is coupled to the oxidation of the reduced form β-nicotinamide adenine dinucleotide (NADH), which dissipation can be monitored spectrophotmetrically at […]. Assay description. Buffer A containing 50 mM Tris, pH 8.0, 16 mM MgCl2 and 80 mM KCl is prepared and stored at room temperature. Buffer B containing 50 mM Tris, pH 8.0 is prepared and stored at toom temperature. Stock solutions of the following reagents are prepared in Buffer B and stored at −20° C.: Adenosine-5′-triphosphate (ATP), cyclic adenosine-5′-monophosphate (cAMP), phosphoenolpyruvate (PEP) and NADH. An assay mix is prepared by mixing Buffer A, […] (TCEP), ATP, PEP, NADH, myokinase (MK), pyruvate kinase (PK), lactate dehydroganese (LDH) and PDE4 to a final volume of 20 mL, which is enough for a single 96-well assay plate. Assay mix (180 μL) and test article (10 μL) in 1:1 DMSO/H2O mixture is pre-incubated at room temperature for 10 min. The enzymatic reaction is initiated by addition of cAMP (10 μL). Final concentration of all components in the assay (200 μL/well) are as follows: 10 mM MgCl2, 50 mM KCl, 5 mM TCEP, 2.5% DMSO, 0.4 mM NADH, 1 mM PEP, 0.04 mM ATP, 5 units MK, 1 unit PK, 1 unit LDH and appropriate amount of PDE4. Reaction progress curves are monitored in a plate reader capable of measuring light absorbance at 340 nm. A decrease in light absorbance at 340 nm is due to oxidation of NADH. Positive controls containing no test article and negative controls containing no test article and no cAMP are included on every assay plate. Reaction rates are determined from the slopes of the linear portions of the progress curves. All data is percent normalized with respect to controls and presented as percent inhibition.

h4D7 = h4D7 (Homo sapiens, UniProt Q08499); test: as above; type: biochemical
Description: as §1

primates = details: cited from earlier work
mice = details: two separate studies in mice in vivo; cited from earlier work
human = human clinical trials; cited from earlier work
rodent models = details: multiple rodent models; cited from earlier work
[2] = tested on: rat model of Huntington's disease; details: cited from earlier work
rat model = rat model in vivo; cited from earlier work
rats = details: cited from earlier work

Chain of h4D7 (Q08499 1-748 isoform Q08499-11): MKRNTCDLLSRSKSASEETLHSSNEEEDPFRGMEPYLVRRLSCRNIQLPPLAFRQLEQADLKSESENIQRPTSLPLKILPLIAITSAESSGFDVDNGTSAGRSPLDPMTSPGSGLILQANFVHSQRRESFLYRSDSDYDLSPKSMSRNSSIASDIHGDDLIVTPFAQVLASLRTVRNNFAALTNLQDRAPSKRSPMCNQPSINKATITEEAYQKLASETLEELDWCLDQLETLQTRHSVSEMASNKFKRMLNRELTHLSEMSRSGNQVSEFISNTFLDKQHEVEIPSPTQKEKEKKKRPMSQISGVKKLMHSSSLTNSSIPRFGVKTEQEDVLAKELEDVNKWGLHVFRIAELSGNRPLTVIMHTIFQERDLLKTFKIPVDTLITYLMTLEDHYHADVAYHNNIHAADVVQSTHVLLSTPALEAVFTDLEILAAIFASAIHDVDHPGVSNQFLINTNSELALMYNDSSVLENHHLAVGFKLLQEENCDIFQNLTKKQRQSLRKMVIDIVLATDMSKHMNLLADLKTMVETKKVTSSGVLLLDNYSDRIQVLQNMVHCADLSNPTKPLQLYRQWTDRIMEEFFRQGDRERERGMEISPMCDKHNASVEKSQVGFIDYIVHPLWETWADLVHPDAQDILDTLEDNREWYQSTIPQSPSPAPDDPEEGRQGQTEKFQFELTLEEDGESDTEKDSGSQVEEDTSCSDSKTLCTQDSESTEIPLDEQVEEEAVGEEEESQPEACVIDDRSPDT
Chain of h4B1 (Q07343 whole entry): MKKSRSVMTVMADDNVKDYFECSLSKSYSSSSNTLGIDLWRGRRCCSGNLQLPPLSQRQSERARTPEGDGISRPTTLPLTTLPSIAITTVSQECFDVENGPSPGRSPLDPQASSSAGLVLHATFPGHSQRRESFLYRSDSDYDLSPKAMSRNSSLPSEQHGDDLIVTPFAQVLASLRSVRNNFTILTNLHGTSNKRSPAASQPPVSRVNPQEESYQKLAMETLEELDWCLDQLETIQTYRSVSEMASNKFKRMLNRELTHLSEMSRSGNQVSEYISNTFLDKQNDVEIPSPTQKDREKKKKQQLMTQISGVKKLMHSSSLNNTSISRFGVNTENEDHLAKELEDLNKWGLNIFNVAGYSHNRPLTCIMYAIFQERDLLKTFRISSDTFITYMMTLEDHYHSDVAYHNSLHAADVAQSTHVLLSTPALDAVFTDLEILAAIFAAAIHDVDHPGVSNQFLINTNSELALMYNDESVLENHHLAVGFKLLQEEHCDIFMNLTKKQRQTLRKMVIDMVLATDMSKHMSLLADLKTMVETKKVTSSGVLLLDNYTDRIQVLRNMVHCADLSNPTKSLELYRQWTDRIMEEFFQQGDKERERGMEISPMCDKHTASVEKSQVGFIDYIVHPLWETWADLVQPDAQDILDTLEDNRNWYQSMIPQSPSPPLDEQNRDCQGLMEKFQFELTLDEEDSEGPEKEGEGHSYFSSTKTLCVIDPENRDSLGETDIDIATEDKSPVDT

Row | Structure (SMILES) | pIC50 (h4B1) | pIC50 (h4D7) | further results
1 | COc1ccc([C@]2(C#N)CC[C@@H](C(=O)O)CC2)cc1OC1CCCC1 [cilomilast] |  |  | results of administration to patients [1]: initially excellent results; effect on long-term trial ([1]; long-term trial): disappeared
2 | Cc1nc2c(-c3cccc(Cl)c3)cc(Cc3ccc(NC(N)=O)cc3)cc2o1 [Example 24, N-(4-{[4-(3-chlorophenyl)-2-methyl-1,3-benzoxazol-6-yl]methyl}phenyl)urea] | > 6.00 | > 6.00 | 
3 | NC(=O)Nc1ccc(Cc2cc3sc(N)nc3c(-c3cccc(Cl)c3)c2F)cc1 [Example 21, {4-[2-amino-4-(3-chloro-phenyl)-5-fluoro-benzothiazol-6-ylmethyl]-phenyl}-urea] | > 6.00 | > 6.00 | 
4 | CCOC(=O)NC1CCN(Cc2cc3scnc3c(-c3cccc(Cl)c3)c2F)CC1 [Example 45, {1-[4-(3-Chloro-phenyl)-5-fluoro-benzothiazol-6-ylmethyl]-piperidin-4-yl}-carbamic acid ethyl ester] | 5.00 to 6.00 | > 6.00 | 
5 | COc1ccc(C2CNC(=O)C2)cc1OC1CCCC1 (stereo not shown) [Rolipram] |  |  | cognition (primates): enhance cognition; outcome in schizophrenia models (mice): improves the outcome; depression (human): ameliorate depression; cognition (rodent models): enhance cognition; neuroprotection [2]: neuroprotective effect
6 | Cc1noc(/C(=C/c2cccc(-c3cc(C(C)(C)S(C)(=O)=O)cc4cccnc34)c2)c2ccc(S(C)(=O)=O)cc2)n1 [L-454,560] |  |  | learning (rat model): improve learning
7 | Nc1ccc(Cc2cc(-c3cccc(Cl)c3)c3nc(N)oc3c2)cc1 [Example 32, 6-(4-aminobenzyl)-4-(3-chlorophenyl)-1,3-benzoxazol-2-amine] | > 6.00 | > 6.00 | 
8 | O=C(Nc1c(Cl)cncc1Cl)c1ccc(OC(F)F)c(OCC2CC2)c1 [roflumilast] |  |  | results of administration to patients [1]: initially excellent results
9 | CCc1ccc2c(-c3cccc(Cl)c3)nc(=O)n(CC)c2n1 [YM976] |  |  | effects of experimentally-induced interstitial cystitis (rats): ameliorate the effects; frequency of urination (rats): decrease; volume of urine at each time of urination (rats): increase
10 | CS(=O)(=O)Nc1ccc(Cc2cc3sc(N)nc3c(-c3cccc(Cl)c3)c2F)cc1 [Example 19, N-{4-[2-amino-4-(3-chloro-phenyl)-5-fluoro-benzothiazol-6-ylmethyl]-phenyl}-methanesulfonamide] | 5.00 to 6.00 | 5.00 to 6.00 | 
11 | Nc1ccc(Cc2cc3scnc3c(-c3cccc(Cl)c3)c2F)cc1 [Example 23, 4-[4-(3-chloro-phenyl)-5-fluoro-benzothiazol-6-ylmethyl]-phenylamine] | > 6.00 | > 6.00 | 
12 | NC(=O)N1CCN(Cc2cc3scnc3c(-c3cccc(Cl)c3)c2F)CC1 [Example 31, 4-[4-(3-Chloro-phenyl)-5-fluoro-benzothiazol-6-ylmethyl]-piperazine-1-carboxylic acid amide] | > 6.00 | > 6.00 | 
13 | CC(=O)N1CCN(Cc2cc3scnc3c(-c3cccc(Cl)c3)c2F)CC1 [Example 44, 1-{4-[4-(3-Chloro-phenyl)-5-fluoro-benzothiazol-6-ylmethyl]-piperazin-1-yl}-ethanone] | 4.70 to 5.00 | 5.00 to 6.00 | 

Now from value to compound, other results behind:

Row | pIC50 (h4B1) | pIC50 (h4D7) | Structure (SMILES) | further results
14 | 5.00 to 6.00 | > 6.00 | Nc1nc2c(-c3cccc(C(F)(F)F)c3)cc(Cc3ccc(F)cc3)cc2s1 [Example 7, 6-(4-Fluoro-benzyl)-4-(3-trifluoromethyl-phenyl)-benzothiazol-2-ylamine] | 
15 | > 6.00 | > 6.00 | Nc1ccc(Cc2cc(-c3cccc(Cl)c3)c3nc(N)sc3c2)cc1 [Example 26, 6-(4-Amino-benzyl)-4-(3-chloro-phenyl)-benzothiazol-2-ylamine] | 
16 | 5.00 to 6.00 | > 6.00 | Nc1nc2c(-c3ccc4nonc4c3)cc(Cc3ccc(F)cc3)cc2s1 [Example 3, 4-Benzol[1,2,5]oxadiazol-5-yl-6-(4-fluoro-benzyl)-benzothiazol-2-yl amine] | 
17 | > 6.00 | > 6.00 | Nc1ccc(Cc2cc(-c3cccc(Cl)c3)c3ncsc3c2)cc1 [Example 25, 4-[4-(3-Chloro-phenyl)-benzothiazol-6-ylmethyl]-phenylamine] | 
18 | 5.00 to 6.00 | > 6.00 | CS(=O)(=O)Nc1ccc(Cc2cc(-c3cccc(Cl)c3)c3nc(N)sc3c2)cc1 [Example 18, N-{4-[2-Amino-4-(3-chloro-phenyl)-benzothiazol-6-ylmethyl]-phenyl}-methanesulfonamide] | 
19 | 5.00 to 6.00 | > 6.00 | Nc1nc2c(-c3ccc4c(c3)OCO4)nc(Cc3ccc(F)cc3)nc2s1 [Example 11, 7-Benzo[1,3]dioxol-5-yl-5-(4-fluorobenzyl)-thiazolo[5,4-d]pyrimidin-2-ylamine] | 
